In patent publication US20250074910A1, “MENIN INHIBITOR AND USE THEREOF” (HITGEN INC., priority 2021, published 2025):

Molecular target: Menin/MLL-4-43 peptide interaction (Homo sapiens (Human), UniProt O00255)
Experiment: Menin-MLL interaction inhibitory activity assay (fluorescence polarization competition)
Format: binding
Conditions: FITC-MLL4-43-peptide, Menin recombinant protein
Procedure: Test Example 1: Menin-MLL Interaction Inhibitory Activity Assay
The inhibition of Menin/MLL-4-43 peptide interaction by small molecule inhibitors was quantitatively detected by fluorescence polarization competition assay. The experiment was performed in a 384-well plate (Corning, Cat #3575) using a reaction buffer consisting of 50 mM Tris, pH 7.5, 50 mM NaCl, and 1 mM DTT. A 40 μL reaction system included 10 μL of 8 nM Menin recombinant protein and 10 μL of the test compound at different concentrations. The compound was pre-incubated with Menin protein for 15 min, and then 20 μL of 10 nM FITC-MLL4-43-peptide was added. After incubation on a shaker at 25° C. for 60 min, the fluorescence polarization signal (FP 485 520 520) was read using BMG PHERAStar detection. The experimental data was analyzed and processed by GraphPad Prism 6 software to obtain the IC50 value. The control compound 1 was prepared by referring to the method of Example 64 in WO2017214367.

Sequence of Menin/MLL-4-43 peptide interaction (O00255 whole entry, species assumed): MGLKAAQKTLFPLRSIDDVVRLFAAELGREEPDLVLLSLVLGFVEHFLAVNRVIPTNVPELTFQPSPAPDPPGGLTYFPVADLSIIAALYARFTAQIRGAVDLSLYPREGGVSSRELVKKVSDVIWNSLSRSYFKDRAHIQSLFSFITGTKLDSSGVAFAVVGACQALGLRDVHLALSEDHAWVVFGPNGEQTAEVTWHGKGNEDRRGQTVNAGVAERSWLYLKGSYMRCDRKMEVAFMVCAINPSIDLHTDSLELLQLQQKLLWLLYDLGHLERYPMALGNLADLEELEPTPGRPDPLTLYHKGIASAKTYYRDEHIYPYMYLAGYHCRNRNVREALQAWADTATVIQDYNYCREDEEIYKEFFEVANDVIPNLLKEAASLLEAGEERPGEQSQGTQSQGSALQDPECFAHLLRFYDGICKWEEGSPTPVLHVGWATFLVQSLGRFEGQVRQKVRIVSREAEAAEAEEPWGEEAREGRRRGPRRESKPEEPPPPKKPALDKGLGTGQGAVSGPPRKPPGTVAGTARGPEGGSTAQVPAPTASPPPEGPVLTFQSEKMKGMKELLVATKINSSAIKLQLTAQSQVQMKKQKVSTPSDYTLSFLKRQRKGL

SMILES | IC50 [nM]
CCN(C(=O)c1cc(F)ccc1Oc1nncnc1N1CC2(CCN(C[C@H]3CC[C@]4(CC3)CC(C(C)(C)O)C(=O)N4)CC2)C1)C(C)C (some centres unmarked) [Example 58-1] | 2.9
CC(C)N(C(=O)c1cc(F)ccc1Oc1nncnc1N1CC2(CCN(C[C@H]3CC[C@]4(CC3)CC(C(C)(C)O)C(=O)N4)CC2)C1)C(C)C (some centres unmarked) [Example 59-1] | 2.5
CCN(C(=O)c1cc(F)ccc1Oc1nncnc1N1CC2(CCN(C[C@H]3CC[C@]4(CC3)CC(=C(C)C)C(=O)N4)CC2)C1)C(C)C [Example 60] | 28.4
CC(C)=C1C[C@]2(CC[C@@H](CN3CCC4(CC3)CN(c3ncnnc3Oc3ccc(F)cc3C(=O)N(C(C)C)C(C)C)C4)CC2)NC1=O [Example 61] | 25.5

Tested on: OCI-AML3
Experiment: Cell proliferation inhibition (CellTiter-Glo), OCI-AML3 (NPM1 mutation)
Format: cell-based
Conditions: Homo sapiens, OCI-AML-3, 168 h, OCI-AML3 cells
Procedure: (§1) Test Example 2: Test of the Inhibitory Ability of Menin-MLL Interaction Inhibitors on Cell Proliferation
(§2) The inhibitory ability of the compounds of the present disclosure on the proliferation of tumor cell lines (including cell lines containing MLL fusion protein such as MV4-11, MOLM-13, THP-1 and NOMO-1, control cell lines without MLL fusion protein such as HL-60, K562 and MOLM-16, and cell lines containing NPM1 mutation such as OCI-AML3) was evaluated by using the cell viability analysis method. The cells were plated in 96-well plates at a certain concentration (e.g., 5,000-20,000 cells/well), and then an equal volume of culture medium containing 2 times the final concentration of the test compound (the final concentration ranging 10 from 1 nM to 10 μM) was added. The plates were placed in an incubator and cultured at 37° C. and 5% CO2 for 72-168 h. Before the test, an equal volume of CellTiter-Glo® Luminescent reagent was added, and the plate was incubated at room temperature for 10 min before detection using an ELISA reader (BMG LABTECH). The data were analyzed using GraphPad Prism software to obtain the IC50 value and compound fitting curve. The control compound 1 was prepared by referring to the method of Example 64 in WO2017214367.

SMILES | GI50 [nM]
CCN(C(=O)c1cc(F)ccc1Oc1cncnc1N1CC2(CCN(C[C@H]3CC[C@@]4(CCC(=O)N4)CC3)CC2)C1)C(C)C [Example 1] | 277
CCN(C(=O)c1cc(F)ccc1Oc1nncnc1N1CC2(CCN(C[C@H]3CC[C@]4(CC3)CC(C(C)(C)O)C(=O)N4)CC2)C1)C(C)C (some centres unmarked) [Example 58-1] | 42.4
CC(C)N(C(=O)c1cc(F)ccc1Oc1nncnc1N1CC2(CCN(C[C@H]3CC[C@]4(CC3)CC(C(C)(C)O)C(=O)N4)CC2)C1)C(C)C (some centres unmarked) [Example 59-1] | 34.7
CCN(C(=O)c1cc(F)ccc1Oc1nncnc1N1CC2(CCN(C[C@H]3CC[C@]4(CC3)CC(=C(C)C)C(=O)N4)CC2)C1)C(C)C [Example 60] | 92.4
CC(C)=C1C[C@]2(CC[C@@H](CN3CCC4(CC3)CN(c3ncnnc3Oc3ccc(F)cc3C(=O)N(C(C)C)C(C)C)C4)CC2)NC1=O [Example 61] | 72.1

Tested on: not listed separately
Experiment: Pharmacokinetics test in mouse
Format: in vivo, ICR mice
Conditions: male, ICR, mouse, plasma, po, 10 mg/kg, mice, p.o. 10 mg/kg
Description: Test Example 4. In Vivo Pharmacokinetic Study
Test purpose: To determine the pharmacokinetic properties of some of the example compounds of the present disclosure in mice, rats and dogs after single intravenous injection (i.v.) and oral gavage (i.g.) administration by LC-MS/MS method.
Research methods: An appropriate amount of compound was weighed and prepared into a transparent clear solution of a certain concentration using 0.9% sodium chloride injection and 1.5 equivalents of 1M HCl aqueous solution based on the molar number of the compound. After SPF male ICR mice, SPF male SD rats, and male beagle dogs were fasted overnight, the test compound solution was given by intravenous injection and oral gavage at the corresponding dose. Anticoagulated whole blood of the test animals was collected at 5 min, 15 min, 30 min, 1 h, 2 h, 4 h, 8 h, and 24 h after administration, and plasma was separated. Plasma samples at each time point were detected by LC-MS/MS, and the plasma concentration of the compound was determined by the standard curve correction method. Phoenix WinNonlin 5.2 non-compartmental model was used to calculate the pharmacokinetic parameters of terminal elimination half-life (t½), blood peak concentration (Cmax), area under the concentration-time curve (AUC), clearance (CL), and bioavailability (F %), which was directly obtained from the serum concentration results. Blood drug concentration and pharmacokinetic parameters are expressed as mean±standard deviation (X±SD). The specific test protocols for each species are as follows.
Pharmacokinetics Test in Mouse
Test animals: SPF male ICR mice, weighing 25-30 g, 12 mice/compound, purchased from Chengdu Dossy Experimental Animal Co., Ltd.
Test design: On the day of the test, ICR mice were randomly divided into groups according to body weight, fasted but with free water for 12-14 h one day before administration, and fed 2 h after administration.
Preparation of test compound solution: The concentration of the test compound for oral gavage was 1 mg/mL. An appropriate amount of compound was weighed and prepared into a 1 mg/mL transparent clear solution using 0.9% sodium chloride injection and 1.5 equivalents of 1M HCl aqueous solution. The concentration of the test compound for intravenous injection was 0.2 mg/mL. The 1 mg/mL transparent clear solution was diluted to a concentration of 0.2 mg/mL using 0.9% sodium chloride injection. The volume of 1 M HCl solution added was calculated as: volume of 1 M HCl solution added […]=weighed amount of compound (mg)/molecular weight×1.5×1000. The amount added during preparation must not exceed the calculated value.
The test substance was administered as follows: intravenous injection: 1 mg/kg of dose, 5 mL/kg of volume, 6 mice; oral gavage: 10 mg/kg of dose, 10 mL/kg of volume, 6 mice.
Sample collection: Blood (40-50 μl) was collected in anticoagulant tubes sprayed with EDTA-K2 through the orbital venous plexus at 5 min, 15 min, 30 min, 1 h, 2 h, 4 h, 8 h, and 24 h after administration, and centrifuged at 10,000 rpm for 20 min within 1 h (the blood was saved on wet ice before and after centrifugation). The supernatant, which was plasma, was collected and frozen in a refrigerator at −20° C. or below for LC-MS/MS analysis of Full PK of male ICR mice (2 mice per group, 4 blood collection time points per mouse, crossover).

SMILES | AUC(0-t) [ng·h/mL] | half-life [h]
CCN(C(=O)c1cc(F)ccc1Oc1cncnc1N1CC2(CCN(C[C@H]3CC[C@@]4(CCC(=O)N4)CC3)CC2)C1)C(C)C [Example 1] | 5290 | 1.51

Same assay, conditions: male, ICR, mouse, plasma, po, 10 mg/kg, mice, p.o. 10 mg/kg; read-out: Cmax

SMILES | Cmax [ng/mL]
CCN(C(=O)c1cc(F)ccc1Oc1cncnc1N1CC2(CCN(C[C@H]3CC[C@@]4(CCC(=O)N4)CC3)CC2)C1)C(C)C [Example 1] | 2480

Same assay, conditions: mice, p.o. 10 mg/kg; 1 mg/kg for intravenous injection

SMILES | F, % [%]
CCN(C(=O)c1cc(F)ccc1Oc1cncnc1N1CC2(CCN(C[C@H]3CC[C@@]4(CCC(=O)N4)CC3)CC2)C1)C(C)C [Example 1] | 79

Tested on: MV4-11
Experiment: Cell proliferation inhibition (CellTiter-Glo), MV4-11
Format: cell-based
Conditions: Homo sapiens, MV4-11, 72 h, MV4-11 cells
Procedure: as §1, §2

SMILES | GI50 [nM]
CCN(C(=O)c1cc(F)ccc1Oc1cncnc1N1CC2(CCN(C[C@H]3CC[C@@]4(CCC(=O)N4)CC3)CC2)C1)C(C)C [Example 1] | 76.2
CCN(C(=O)c1cc(F)ccc1Oc1nncnc1N1CC2(CCN(C[C@H]3CC[C@]4(CC3)CC(C(C)(C)O)C(=O)N4)CC2)C1)C(C)C (some centres unmarked) [Example 58-1] | 17.2
CC(C)N(C(=O)c1cc(F)ccc1Oc1nncnc1N1CC2(CCN(C[C@H]3CC[C@]4(CC3)CC(C(C)(C)O)C(=O)N4)CC2)C1)C(C)C (some centres unmarked) [Example 59-1] | 15.3
CCN(C(=O)c1cc(F)ccc1Oc1nncnc1N1CC2(CCN(C[C@H]3CC[C@]4(CC3)CC(=C(C)C)C(=O)N4)CC2)C1)C(C)C [Example 60] | 35
CC(C)=C1C[C@]2(CC[C@@H](CN3CCC4(CC3)CN(c3ncnnc3Oc3ccc(F)cc3C(=O)N(C(C)C)C(C)C)C4)CC2)NC1=O [Example 61] | 23

Tested on: MOLM-13
Experiment: Cell proliferation inhibition (CellTiter-Glo), MOLM-13
Format: cell-based
Conditions: Homo sapiens, MOLM-13, 168 h, MOLM-13 cells
Procedure: as §1, §2

SMILES | GI50 [nM]
CCN(C(=O)c1cc(F)ccc1Oc1cncnc1N1CC2(CCN(C[C@H]3CC[C@@]4(CCC(=O)N4)CC3)CC2)C1)C(C)C [Example 1] | 580
CCN(C(=O)c1cc(F)ccc1Oc1nncnc1N1CC2(CCN(C[C@H]3CC[C@]4(CC3)CC(C(C)(C)O)C(=O)N4)CC2)C1)C(C)C (some centres unmarked) [Example 58-1] | 88.9
CC(C)N(C(=O)c1cc(F)ccc1Oc1nncnc1N1CC2(CCN(C[C@H]3CC[C@]4(CC3)CC(C(C)(C)O)C(=O)N4)CC2)C1)C(C)C (some centres unmarked) [Example 59-1] | 55.9
CCN(C(=O)c1cc(F)ccc1Oc1nncnc1N1CC2(CCN(C[C@H]3CC[C@]4(CC3)CC(=C(C)C)C(=O)N4)CC2)C1)C(C)C [Example 60] | 175
CC(C)=C1C[C@]2(CC[C@@H](CN3CCC4(CC3)CN(c3ncnnc3Oc3ccc(F)cc3C(=O)N(C(C)C)C(C)C)C4)CC2)NC1=O [Example 61] | 108
